# Data taken from BindingDB's records for doi:10.1021/jm960495w (Hokkaido University, 1997).
# Experiment: Percentage inhibition of N-methyl-D-aspartic acid (NMDA) receptor produced by oocytes
smiles,measurement,value
"CCC(N)[C@@H]1C[C@@]1(C(=O)N(CC)CC)c1ccccc1 (stereo partly drawn) [(1S,2R)-2-(1-Amino-propyl)-1-phenyl-cyclopropanecarboxylic acid diethylamide]",IC50,51 µM
